Assay results published in patent publication EP1144412B1, “IMMUNOSUPPRESSIVE EFFECTS OF PTERIDINE DERIVATIVES” (4 AZA Bioscience nv, priority 1998, dated 2000).
Like-named read-outs stand apart in the source and are kept apart here.

Columns and labels:
[1] = test system: Peripheral blood mononuclear cells (PBMC); assay: Mixed lymphocyte reaction (MLR), [3H]-thymidine incorporation; type: cell-based; conditions: Homo sapiens
From the text: (§1) Various models may be used for testing an immunosuppressive effect. In vivo, for example, different transplantation models are available. They are strongly influenced by different immunogenicities, depending on the donor and recipient species used and depending on the nature of the transplanted organ. The survival time of transplanted organs can thus be used to measure the suppression of the immune response. In vitro, there exist also various models. The most used are lymphocyte activation tests. Usually activation is measured via lymphocyte proliferation. Inhibition of proliferation thus always means immunosuppression under the experimental conditions applied. There exist different stimuli for lymphocyte activation: • coculture of lymphocytes of […] (MLR = mixed lymphocyte reaction): lymphocytes expressing different minor and major antigens of the HLA-DR type (= alloantigens) activate each other non-specifically. • CD3 assay: here there is an activation of the T-lymphocytes via an exogenously added antibody (OKT3). This antibody reacts against the CD3 molecule located on the lymphocyte membrane. This molecule has a costimulatory function. […] This molecule is also located on the lymphocyte membrane, and delivers strong costimulatory signals.
Peripheral blood mononuclear cells (PBMC) were isolated from heparinized peripheral blood by density gradient centrifugation over Lymphoprep (Nycomed, Maorstua, Norway). Allogeneic PBMC or EBV-transformed human B cells [RPMI1788 (ATCC name CCL156)] which strongly express B7-1 and B7-2 were used as stimulator cells after irradiation with 30 Gy. MLR was performed in triplicate wells. After 5 days incubation at 37EC, 1 µCi [^3H]-thymidine was added to each cup. After a further 16 hours incubation, cells were harvested and counted in a β-counter.
The percent suppression of proliferation by drugs was counted using the formula Percent inhibition =((cpm + drugs) - cpm Cult. Med)/((cpm - drugs) - cpm Cult. Med.)x 100 [formula]

[2] = test system: Highly purified T cells; assay: T cell proliferation induced by anti-CD28 mAb + PMA (BrdU incorporation); type: cell-based, Human; conditions: for IC50: Homo sapiens, T-cell
From the text: as §1
(§2) T cells were purified by removing non-T cells. Briefly,monocytes were removed by cold agglutination. The resulting lymphoid cells were further purified by a cell enrichment immunocolumn [Cellect Human T (Biotex, Edmonton, Alberta, Canada)] by a process of negative selection.
(§3) Measurements of T cell proliferations induced by anti-CD3 mAb + PMA or anti-CD28 mAb + PMA
(§4) Highly purified T cells (10^6/ml) were stimulated by immobilized anti-CD3 àr anti-CD28 mAb in the presence of PMA. Anti-CD3 mAb (CLB-CD3; CLB, Amsterdam, The Netherlands) were fixed on the 96-microwell plates by incubating the wells with 50 µl of mAb solution (1/800 dilution in culture medium). Anti-CD28 mAb (CLB-CD28; CLB, Amsterdam, The Netherlands) 50 µl (1/650 dilution in culture medium) was added directly to the wells. Further, 20 µl PMA (Sigma, St. Louis, MO, USA) solution (final concentration: 0.5 ng/ml) was added. Subsequently, 20 µl of immunosuppressants were added by serial dilution in triplicate wells. Finally 100 µl of the T cell suspension (10^6/ml) was added. After 48-hour incubation at 37EC in 5% CO2 20 Φl BrdU (100 ΦM solution) (Cell Proliferation Elisa, Boehringer-Mannheim Belgium) was added to each well. After a further overnight incubation the T cell proliferation was measured using a colorimetric immunoassay for qualification of cell proliferation based on measurements of the incorporation of BrdU during DNAsynthesis. The optical density (OD) was measured by a Behring EL311 plate reader at 450 nm (reference wavelength: 690 nm). The percent suppression of proliferation by drugs was counted using the formula: Per cent inhibition =((OD + drugs) - (OD Cult. Med.))/((OD - drugs) - (OD Cult. Med.))x 100 [formula]

[3] = test system: Highly purified T cells; assay: T cell proliferation induced by anti-CD3 mAb + PMA (BrdU incorporation); type: cell-based, Human; conditions: for IC50: Homo sapiens, T-cell
From the text: as §1, §2, §3, §4

[4] = Table II, read-out: IC50 in µM of pteridine derivative MLR
[5] = untitled structure table, no unit printed there, same values in Table II as IC50 in µM, read-out: MLR
[6] = Table II, read-out: IC50 in µM of pteridine derivative aCD28
[7] = untitled structure table, no unit printed there, same values in Table II as IC50 in µM, read-out: aCD28
[8] = Table II, read-out: IC50 in µM of pteridine derivative ACD3
[9] = untitled structure table, no unit printed there, same values in Table II as IC50 in µM, read-out: aCD3
[10] = untitled structure table, IC50 subranges, read-out: MLR
[11] = untitled structure table, IC50 subranges, read-out: aCD28
[12] = untitled structure table, IC50 subranges, read-out: aCD3
[13] = Table III, comparison immunosuppressants, read-out: IC50 MLR
[14] = Table III, comparison immunosuppressants, read-out: IC50 aCD3
[15] = Table III, comparison immunosuppressants, read-out: IC50 aCD28

Q: `Nc1nc(N2CCNCC2)c2nc(-c3ccc(Cl)cc3)cnc2n1` [Compound 47, 2-amino-4-piperazino-6-(4-chlorophenyl)pteridine] was tested. Which IC50 [1, 4] did it give?
A: Its IC50 is 2 µM.

Q: And the IC50 [1, 5]?
A: Its IC50 is 2 µM.

Q: What about the IC50 [2, 6] of the same molecule?
A: The IC50 was 15 µM.

Q: What about the IC50 [2, 7] of the same molecule?
A: The IC50 was 15 µM.

Q: And the IC50 [3, 8]?
A: The IC50 was 20 µM.

Q: What about the IC50 [3, 9] of the same molecule?
A: The IC50 was 20 µM.

Q: Which IC50 [1, 4] does the source give for `COc1ccc(-c2cnc3nc(N)nc(N4CCNCC4)c3n2)cc1` [Compound 48, 2-amino-4-piperazino-6-(4-methoxyphenyl)pteridine] here?
A: Its IC50 is 10.5 µM.

Q: And the IC50 [1, 5]?
A: The IC50 was 10.5 µM.

Q: What about the IC50 [2, 6] of the same molecule?
A: The IC50 was 4.5 µM.

Q: And the IC50 [2, 7]?
A: The IC50 was 4.5 µM.

Q: What about the IC50 [3, 8] of the same molecule?
A: Its IC50 is 14 µM.

Q: What about the IC50 [3, 9] of the same molecule?
A: Its IC50 is 14 µM.

Q: Which IC50 [1, 4] does the source give for `COc1ccc(-c2cnc3nc(N)nc(N4CCNCC4)c3n2)cc1OC` [Compound 49, 2-amino-4-piperazino-6-(3,4-dimethoxyphenyl)pteridine] here?
A: Its IC50 is 2.8 µM.

Q: What about the IC50 [1, 5] of the same molecule?
A: Its IC50 is 2.8 µM.

Q: What about the IC50 [2, 6] of the same molecule?
A: The IC50 was 4.5 µM.

Q: And the IC50 [2, 7]?
A: Its IC50 is 4.5 µM.

Q: And the IC50 [3, 8]?
A: The IC50 was 14.8 µM.

Q: And the IC50 [3, 9]?
A: Its IC50 is 14.8 µM.

Q: Which IC50 [1, 10] does the source give for `COc1cc(-c2cnc3nc(N)nc(N(Cc4ccccc4)Cc4ccccc4)c3n2)cc(OC)c1OC` [Compound 50, 2-amino-4-dibenzylamino-6-(3,4,5-trimethoxyphenyl)pteridine] here?
A: The IC50 was 1 to 15 µM.

Q: And the IC50 [2, 11]?
A: Its IC50 is 1 to 15 µM.

Q: And the IC50 [3, 12]?
A: The IC50 was 1 to 15 µM.

Q: How did the IC50 [1, 10] turn out when `Nc1nc(N2CCOCC2)c2nc(-c3ccc4c(c3)OCO4)cnc2n1` [Compound 56, 2-amino-4-morpholino-6-(3,4-formylidene-3,4-dihydroxyphenyl)pteridine] was run?
A: The IC50 was 1 to 15 µM.

Q: And the IC50 [2, 11]?
A: The IC50 was 16 to 150 µM.

Q: And the IC50 [3, 12]?
A: The IC50 was 16 to 150 µM.

Q: What does the source list for `CN(C)c1nc(N)nc2ncc(-c3ccc4c(c3)OCO4)nc12` [Compound 57, 2-amino-4-dimethylamino-6-(3,4-formylidene-3,4-dihydroxyphenyl)pteridine]?
A: IC50 [1, 10]: > 151 µM; IC50 [2, 11]: 16 to 150 µM; IC50 [3, 12]: 16 to 150 µM

Q: `COc1ccc(-c2cnc3nc(N)nc(N(C)C)c3n2)cc1OC` [Compound 59, 2-amino-4-dimethylamino-6-(3,4-dimethoxyphenyl)pteridine] was tested. Which IC50 [1, 10] did it give?
A: Its IC50 is < 1 µM.

Q: And the IC50 [2, 11]?
A: Its IC50 is 1 to 15 µM.

Q: And the IC50 [3, 12]?
A: The IC50 was 1 to 15 µM.

Q: Which results are given for `Cc1cnc2nc(N)nc(N(C)C)c2n1` [Compound 60, 2-amino-4-dimethylamino-6-methylpteridine]?
A: IC50 [1, 10]: 16 to 150 µM; IC50 [2, 11]: 16 to 150 µM; IC50 [3, 12]: 16 to 150 µM

Q: With `CCOc1nc(N)nc2ncc(-c3ccccc3)nc12` [Compound 61, 2-amino-4-ethoxy-6-phenylpteridine] as the molecule, how does the IC50 [1, 10] read?
A: Its IC50 is 1 to 15 µM.

Q: What about the IC50 [2, 11] of the same molecule?
A: Its IC50 is 1 to 15 µM.

Q: What about the IC50 [3, 12] of the same molecule?
A: The IC50 was 1 to 15 µM.

Q: How did the IC50 [1, 10] turn out when `CCCNc1nc(N)nc2ncc(-c3ccccc3)nc12` [Compound 62, 2-amino-4-propylamino-6-phenylpteridine] was run?
A: Its IC50 is 1 to 15 µM.

Q: And the IC50 [2, 11]?
A: The IC50 was 16 to 150 µM.

Q: And the IC50 [3, 12]?
A: Its IC50 is 16 to 150 µM.

Q: `COc1ccc(-c2cnc3nc(NC(C)=O)nc(O)c3n2)cc1OC` [Compound 64, 2-acetamido-4-hydroxy-6-(3,4-dimethoxyphenyl)pteridine] was tested. Which IC50 [1, 10] did it give?
A: Its IC50 is 16 to 150 µM.

Q: What about the IC50 [2, 11] of the same molecule?
A: Its IC50 is 16 to 150 µM.

Q: What about the IC50 [3, 12] of the same molecule?
A: Its IC50 is > 151 µM.

Q: Which IC50 [1, 10] does the source give for `COc1ccc(-c2cnc3nc(NC(C)=O)nc(OC(C)C)c3n2)cc1OC` [Compound 65, 2-acetamido-4-i-propoxy-6-(3,4-dimethoxyphenyl)pteridine] here?
A: Its IC50 is 1 to 15 µM.

Q: And the IC50 [2, 11]?
A: Its IC50 is 16 to 150 µM.

Q: And the IC50 [3, 12]?
A: The IC50 was 16 to 150 µM.

Q: Which IC50 [1, 13] does the source give for `C=CC[C@@H]1/C=C(\C)C[C@H](C)C[C@H](OC)[C@H]2O[C@@](O)(C(=O)C(=O)N3CCCC[C@H]3C(=O)O[C@H](/C(C)=C/[C@@H]3CC[C@@H](O)[C@H](OC)C3)[C@H](C)[C@@H](O)CC1=O)[C@H](C)C[C@@H]2OC` [FK506, tacrolimus, reference compound] here?
A: The IC50 was 0.001 µM.

Q: And the “activity in the anti-CD28 + PMA test” value [2]?
A: Its value is “not suppressive”.

Q: What about the “activity in the anti-CD3 + PMA test” value [3] of the same molecule?
A: Its value is “only active”.

Q: And the IC50 [3, 14]?
A: The IC50 was 0.001 µM.

Q: How did the IC50 [1, 13] turn out when `Cc1oncc1C(=O)Nc1ccc(C(F)(F)F)cc1` [Leflunomide, reference compound] was run?
A: The IC50 was 25 µM.

Q: What about the IC50 [2, 15] of the same molecule?
A: The IC50 was 20 µM.

Q: What about the IC50 [3, 14] of the same molecule?
A: The IC50 was 15 µM.

Q: How did the IC50 [1, 13] turn out when `CN(Cc1cnc2nc(N)nc(N)c2n1)c1ccc(C(=O)N[C@@H](CCC(=O)O)C(=O)O)cc1` [MTX, methatroxate, reference compound] was run?
A: The IC50 was 10 µM.

Q: What about the IC50 [2, 15] of the same molecule?
A: The IC50 was > 200 µM.

Q: And the IC50 [3, 14]?
A: The IC50 was > 200 µM.

Q: What does the source list for `CO[C@H]1C[C@@H]2CC[C@@H](C)[C@@](O)(O2)C(=O)C(=O)N2CCCC[C@H]2C(=O)O[C@H]([C@H](C)C[C@@H]2CC[C@@H](O)[C@H](OC)C2)CC(=O)[C@H](C)/C=C(\C)[C@@H](O)[C@@H](OC)C(=O)[C@H](C)C[C@H](C)/C=C/C=C/C=C/1C` [Rapamycin, reference compound]?
A: IC50 [1, 13]: 0.001 µM; IC50 [2, 15]: 0.001 µM; IC50 [3, 14]: 0.001 µM
